Experimental data taken from US20090304714A1, “IKKi Inhibitor Therapies and Screening Methods, and Related IKKi Diagnostics” (The Regents of the University of Michigan, priority 2008, published 2009).

Experiments:
3T3L1 adipocytes = experiment: Insulin-stimulated 2-deoxyglucose uptake in 3T3L1 adipocytes; type: cell-based, mouse; design: inhibitory effects of LPS on insulin-stimulated glucose uptake / direct effect on insulin-stimulated or basal transport: dose or concentration left out as unconfirmed
Procedure: Cell culture and transfection. 3T3-L1 fibroblasts (American Type Culture Collection) were cultured and differentiated as described previously [Reed & Lane, Proc Natl Acad Sci USA. 1980 January; 77(1):285-9, herein incorporated by reference]. Cells were routinely used within 7 days upon completion of the differentiation process, with only cultures in which >95% of cells displaying adipocyte morphology being used. CHO-IR and COS-1 cells were maintained in Dulbecco modified Eagle medium (Gibco) containing 10% foetal bovine serum. CHO-IR and 3T3-L1 cells were routinely transfected with plasmids and siRNA by electroporation as described previously (Inoue, M., et al., (2006) Mol. Biol. Cell 17, 2303, Baumann, et al., (2000) Nature 407, 202, both of which are herein incorporated by reference). Cos-1 cells were transfected using FuGene6 (Roche Diagnostics) in accordance with the manufacturer's protocol.
Glucose uptake analysis. 3T3-L1 adipocytes grown in 12-well plates were subjected to a glucose uptake assay as described previously [Van den Berghe et al., Mol Cell Biol. 1994 April; 14(4):2372-7, herein incorporated by reference] using 0.075 uCi/well 2-deoxy-D-[^14C]glucose (GE Health). Samples were counted in an LS6500 Multi-Purpose Scintillation Counter (Beckman Coulter) using BCS Biodegradable Counting Scintillant (GE Health).

[1] = biological target: human insulin receptor Ser^1035Ala mutant (UniProt P06213)

Compound | direct effect on insulin-stimulated or basal transport (3T3L1 adipocytes; 3T3L1 adipocytes) | LPS decreases in insulin stimulated glucose uptake (3T3L1 adipocytes; 3T3L1 adipocytes treated with 50 nM inhibitor prior to LPS and insulin (FIG. 6b)) | inhibitory effects of LPS on insulin-stimulated glucose uptake (3T3L1 adipocytes; 3T3L1 adipocytes treated, then LPS, followed by insulin) | incorporation of radioactive phosphate into the receptor [1]
COc1cc2ncn(-c3cc(OCc4ccccc4S(C)(=O)=O)c(C#N)s3)c2cc1OC [5-(5,6-Dimethoxy-1H-benzimidazol-1-yl)-3-[[2-(methylsulfonyl)phenyl]methoxy]-2-thiophenecarbonitrile] | little direct effect | prevents | prevented | 
wild-type IKKi (ectopically expressed, Example 1) |  |  |  | the Ser^1035Ala substitution blocked the incorporation of radioactive phosphate relative to the wild-type receptor when co-expressed with IKKi
